The source of these data is PMC9623576, “Semisynthesis and Evaluation of Anti-Inflammatory Activity of the Cassane-Type Diterpenoid Taepeenin F and of Some Synthetic Intermediates” (Journal of Natural Products, 2022).

SMILES strings stand for the structures. “And” between values parts separate entries of the source, which are not always exact repeats. Equal entries are not always repeated.

For the experiment, the system named is NO production in LPS-activated RAW 264.7 macrophage murine cells. The experiment is described as follows: Inhibition of NO (nitrite) release, Griess reaction. Format: cell-based. As to the method: The concentrations of nitrites were determined by the Griess reaction.
A stock solution was frozen and stored at […]. Before the experiments, this solution was diluted in cell-culture medium to the adequate concentrations for each experiment. […] For nitrite assay, subcytotoxic concentrations (3/4IC50, 1/2IC50, and 1/4IC50), were used to ensure that the NO inhibitory potential was not due to a possible cytotoxic effect. The concentrations of 3/4IC50, 1/2IC50, and 1/4IC50 were used for the cell-cycle analysis. All experiments were measured and compared with control (untreated cells after 24, 48, or 72 h of treatment.)
Nitrites production was analyzed through the Griess reaction. This nitrite concentration was used as an indicator of NO production.[35] Briefly, RAW 264.7 cells were plated at 6 × 10^3 cells/well in 24-well cell culture plates and supplemented with 10 μg/mL of lipopolysaccharide (LPS). […] The supernatants were collected at 48 and 72 h, to determine their nitrite concentrations and/or stored at −80 °C for further use.
The Griess reaction was performed taking 150 μL of supernatant test samples or sodium nitrite standard (0–120 μM) and mixed with 25 μL of Griess reagent A (0.1% N,N-(1-naphthyl) ethylenediaminedihydrochloride) and 25 μL of Griess reagent B (1% sulfanilamide in 5% of phosphoric acid), in a 96-well plate. After 15 min of incubation at room temperature, the absorbance was measured at 540 nm in an ELISA plate reader (Tecan Sunrise MR20–301, TECAN, Austria). The absorbance was referred to a nitrite standard curve to determine the concentration of nitrite in the supernatant of each experimental sample. The percentage of NO production was determined, assigning 100% at the increase between negative control (untreated cells) and positive control (cells only treated with 10 μg/mL of LPS).
A general note: The Griess reaction detects nitrite, a stable product of nitric oxide.

Consider `COC(=O)[C@]1(C)CCC[C@]2(C)c3cc(O)c(C=O)c(C)c3CC[C@@H]12` [Compound 21, (1R,4aS,10aR)-Methyl 7-formyl-6-hydroxy-1,4a,8-trimethyl-1,2,3,4,4a,9,10,10a-octahydrophenanthrene-1-carboxylate], for which the “inhibition of NO release” value was 76.49% and 76% (48 h, 3/4IC50 concentration); 91% (72 h, 3/4IC50 concentration).
As to `COC(=O)[C@]1(C)CCC[C@@]2(C)[C@H]1CC=C1C(C)=C(C(C)C)C(=O)C[C@@H]12` [Compound 16, (1R,4aR,10aR)-Methyl 7-isopropyl-1,4a,8-trimethyl-6-oxo-1,2,3,4,4a,4b,5,6,10,10a-decahydrophenanthrene-1-carboxylate], the “inhibition of NO release” value was 59.95% (48 h, 1/2IC50 concentration); 85.13% (48 h, 3/4IC50 concentration); 80% (72 h, 3/4IC50 concentration).
